From ChEMBL document CHEMBL4507299, “Data for DCP probe PF-04554878” (2021)

Key:
[1] = molecular target: AP2-associated protein kinase 1 (Homo sapiens) (UniProt Q2M2I8)
[2] = tested on: Tyrosine-protein kinase ABL1 (Homo sapiens), P00519 [E255K]
[3] = tested on: Tyrosine-protein kinase ABL1 (Homo sapiens), P00519 [Q252H]
[4] = molecular target: Mitogen-activated protein kinase kinase kinase 6 (Homo sapiens) (UniProt O95382)
[5] = molecular target: Calcium/calmodulin-dependent protein kinase type II subunit delta (Homo sapiens) (UniProt Q13557)
[6] = molecular target: Cyclin-dependent kinase 13 (Homo sapiens) (UniProt Q14004)
[7] = molecular target: Cyclin-dependent kinase-like 1 (Homo sapiens) (UniProt Q00532)
[8] = molecular target: Casein kinase I isoform alpha-like (Homo sapiens) (UniProt Q8N752)
[9] = molecular target: Death-associated protein kinase 2 (Homo sapiens) (UniProt Q9UIK4)
[10] = tested on: Epidermal growth factor receptor (Homo sapiens), P00533 [G719S]
[11] = molecular target: Ephrin type-A receptor 5 (Homo sapiens) (UniProt P54756)
[12] = molecular target: Ephrin type-B receptor 3 (Homo sapiens) (UniProt P54753)
[13] = molecular target: Ephrin type-B receptor 4 (Homo sapiens) (UniProt P54760)
[14] = molecular target: Receptor tyrosine-protein kinase erbB-2 (Homo sapiens) (UniProt P04626)
[15] = molecular target: Receptor tyrosine-protein kinase erbB-3 (Homo sapiens) (UniProt P21860)
[16] = molecular target: Tyrosine-protein kinase Fyn (Homo sapiens) (UniProt P06241)
[17] = molecular target: G protein-coupled receptor kinase 3 (Homo sapiens) (UniProt P35626)
[18] = molecular target: Insulin receptor-related protein (Homo sapiens) (UniProt P14616)
[19] = molecular target: Interleukin-1 receptor-associated kinase 1 (Homo sapiens) (UniProt P51617)
[20] = tested on: Mast/stem cell growth factor receptor Kit (Homo sapiens), P10721 [D816H]
[21] = molecular target: Serine/threonine-protein kinase LATS2 (Homo sapiens) (UniProt Q9NRM7)
[22] = molecular target: Mitogen-activated protein kinase kinase kinase 4 (Homo sapiens) (UniProt Q9Y6R4)
[23] = molecular target: Dual specificity mitogen-activated protein kinase kinase 6 (Homo sapiens) (UniProt P52564)
[24] = molecular target: Serine/threonine-protein kinase MRCK alpha (Homo sapiens) (UniProt Q5VT25)
[25] = molecular target: Serine/threonine-protein kinase Nek6 (Homo sapiens) (UniProt Q9HC98)
[26] = molecular target: Cyclin-dependent kinase 17 (Homo sapiens) (UniProt Q00537)
[27] = tested on: Phosphatidylinositol 4,5-bisphosphate 3-kinase catalytic subunit alpha isoform (Homo sapiens), P42336 [I800L]
[28] = molecular target: Phosphatidylinositol 4,5-bisphosphate 3-kinase catalytic subunit gamma isoform (Homo sapiens) (UniProt P48736)
[29] = molecular target: Serine/threonine-protein kinase pim-3 (Homo sapiens) (UniProt Q86V86)
[30] = molecular target: Serine/threonine-protein kinase PLK2 (Homo sapiens) (UniProt Q9NYY3)
[31] = molecular target: Protein kinase C delta type (Homo sapiens) (UniProt Q05655)
[32] = molecular target: Protein kinase C theta type (Homo sapiens) (UniProt Q04759)
[33] = molecular target: RAF proto-oncogene serine/threonine-protein kinase (Homo sapiens) (UniProt P04049)
[34] = molecular target: Proto-oncogene tyrosine-protein kinase receptor Ret (Homo sapiens) (UniProt P07949)
[35] = molecular target: Serine/threonine-protein kinase RIO2 (Homo sapiens) (UniProt Q9BVS4)
[36] = molecular target: Receptor-interacting serine/threonine-protein kinase 1 (Homo sapiens) (UniProt Q13546)
[37] = molecular target: Ribosomal protein S6 kinase alpha-4 (Homo sapiens) (UniProt O75676)
[38] = molecular target: STE20-like serine/threonine-protein kinase (Homo sapiens) (UniProt Q9H2G2)
[39] = molecular target: SRSF protein kinase 3 (Homo sapiens) (UniProt Q9UPE1)
[40] = molecular target: High affinity nerve growth factor receptor (Homo sapiens) (UniProt P04629)
[41] = molecular target: BDNF/NT-3 growth factors receptor (Homo sapiens) (UniProt Q16620)
[42] = molecular target: Tyrosine-protein kinase receptor TYRO3 (Homo sapiens) (UniProt Q06418)
[43] = molecular target: Serine/threonine-protein kinase 32A (Homo sapiens) (UniProt Q8WU08)
[44] = molecular target: Alpha-1B adrenergic receptor (Homo sapiens) (UniProt P35368); details: Compound concentration 10.0 uM
[45] = molecular target: Sigma intracellular receptor 2 (Homo sapiens, UniProt Q5BJF2); details: Compound concentration 10.0 uM
[46] = Compound concentration 100.0 nM
[47] = Compound concentration 1000.0 nM

Sequence of AP2-associated protein kinase 1 (Homo sapiens) (Q2M2I8 whole entry, looked up): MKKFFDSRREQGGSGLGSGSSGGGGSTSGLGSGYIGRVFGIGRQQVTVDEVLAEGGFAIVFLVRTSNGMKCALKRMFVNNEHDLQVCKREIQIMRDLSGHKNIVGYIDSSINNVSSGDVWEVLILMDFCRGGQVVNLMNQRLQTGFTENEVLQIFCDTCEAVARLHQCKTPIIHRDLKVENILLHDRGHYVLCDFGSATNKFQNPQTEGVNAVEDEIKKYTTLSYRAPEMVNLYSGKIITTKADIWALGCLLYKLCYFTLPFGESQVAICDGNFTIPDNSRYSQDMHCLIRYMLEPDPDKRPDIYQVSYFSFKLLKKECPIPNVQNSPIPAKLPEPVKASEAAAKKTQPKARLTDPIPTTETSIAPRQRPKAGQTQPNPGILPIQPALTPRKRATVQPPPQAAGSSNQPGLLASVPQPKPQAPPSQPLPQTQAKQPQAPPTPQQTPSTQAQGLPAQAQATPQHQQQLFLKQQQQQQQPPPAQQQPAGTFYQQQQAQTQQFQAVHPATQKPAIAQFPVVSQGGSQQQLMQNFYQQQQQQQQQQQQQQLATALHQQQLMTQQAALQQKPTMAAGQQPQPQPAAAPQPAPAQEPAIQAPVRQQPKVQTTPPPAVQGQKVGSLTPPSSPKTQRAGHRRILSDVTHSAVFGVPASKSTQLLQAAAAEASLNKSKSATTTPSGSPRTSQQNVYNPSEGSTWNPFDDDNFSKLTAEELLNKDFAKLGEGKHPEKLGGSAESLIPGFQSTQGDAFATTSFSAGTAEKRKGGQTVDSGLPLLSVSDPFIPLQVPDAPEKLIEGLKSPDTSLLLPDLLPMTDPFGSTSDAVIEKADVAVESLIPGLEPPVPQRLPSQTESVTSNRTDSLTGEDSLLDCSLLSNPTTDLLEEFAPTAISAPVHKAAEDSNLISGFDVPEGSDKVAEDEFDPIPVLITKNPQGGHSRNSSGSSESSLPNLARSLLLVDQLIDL
Sequence of Alpha-1B adrenergic receptor (Homo sapiens) (P35368 whole entry): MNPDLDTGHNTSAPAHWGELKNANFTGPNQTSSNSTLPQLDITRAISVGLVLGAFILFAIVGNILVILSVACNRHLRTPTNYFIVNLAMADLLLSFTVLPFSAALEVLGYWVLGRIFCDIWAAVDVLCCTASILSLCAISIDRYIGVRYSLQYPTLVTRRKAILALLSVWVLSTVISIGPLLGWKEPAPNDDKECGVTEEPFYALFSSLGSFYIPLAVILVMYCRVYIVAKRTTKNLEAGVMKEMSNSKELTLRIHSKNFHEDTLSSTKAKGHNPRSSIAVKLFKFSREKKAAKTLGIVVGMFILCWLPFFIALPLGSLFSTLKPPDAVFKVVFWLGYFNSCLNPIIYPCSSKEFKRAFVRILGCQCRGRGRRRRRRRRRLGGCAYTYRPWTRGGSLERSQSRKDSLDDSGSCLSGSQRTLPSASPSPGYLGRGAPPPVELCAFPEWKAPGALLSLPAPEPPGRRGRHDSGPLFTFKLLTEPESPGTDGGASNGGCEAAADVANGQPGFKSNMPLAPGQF
Sequence of Death-associated protein kinase 2 (Homo sapiens) (Q9UIK4 whole entry, looked up): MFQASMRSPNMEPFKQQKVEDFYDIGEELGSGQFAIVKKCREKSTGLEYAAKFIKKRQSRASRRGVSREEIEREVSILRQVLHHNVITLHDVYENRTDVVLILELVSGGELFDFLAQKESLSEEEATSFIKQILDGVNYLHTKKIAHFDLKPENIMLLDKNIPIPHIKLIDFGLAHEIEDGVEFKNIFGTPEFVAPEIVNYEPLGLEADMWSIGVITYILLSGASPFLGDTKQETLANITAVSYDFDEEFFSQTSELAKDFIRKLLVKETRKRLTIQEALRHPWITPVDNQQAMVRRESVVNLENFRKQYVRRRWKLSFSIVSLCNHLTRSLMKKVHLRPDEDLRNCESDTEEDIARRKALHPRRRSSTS
Sequence of Serine/threonine-protein kinase 32A (Homo sapiens) (Q8WU08 whole entry): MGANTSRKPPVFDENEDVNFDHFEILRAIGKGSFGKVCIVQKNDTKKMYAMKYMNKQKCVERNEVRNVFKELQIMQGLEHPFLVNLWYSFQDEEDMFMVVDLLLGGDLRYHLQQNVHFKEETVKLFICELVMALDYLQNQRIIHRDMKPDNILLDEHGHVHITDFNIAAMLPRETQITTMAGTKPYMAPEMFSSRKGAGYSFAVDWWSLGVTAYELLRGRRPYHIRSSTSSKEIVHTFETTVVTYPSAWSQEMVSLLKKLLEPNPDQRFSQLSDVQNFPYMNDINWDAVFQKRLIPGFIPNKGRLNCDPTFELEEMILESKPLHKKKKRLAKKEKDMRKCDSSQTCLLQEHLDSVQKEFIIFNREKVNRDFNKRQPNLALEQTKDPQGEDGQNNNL
Sequence of Tyrosine-protein kinase receptor TYRO3 (Homo sapiens) (Q06418 whole entry): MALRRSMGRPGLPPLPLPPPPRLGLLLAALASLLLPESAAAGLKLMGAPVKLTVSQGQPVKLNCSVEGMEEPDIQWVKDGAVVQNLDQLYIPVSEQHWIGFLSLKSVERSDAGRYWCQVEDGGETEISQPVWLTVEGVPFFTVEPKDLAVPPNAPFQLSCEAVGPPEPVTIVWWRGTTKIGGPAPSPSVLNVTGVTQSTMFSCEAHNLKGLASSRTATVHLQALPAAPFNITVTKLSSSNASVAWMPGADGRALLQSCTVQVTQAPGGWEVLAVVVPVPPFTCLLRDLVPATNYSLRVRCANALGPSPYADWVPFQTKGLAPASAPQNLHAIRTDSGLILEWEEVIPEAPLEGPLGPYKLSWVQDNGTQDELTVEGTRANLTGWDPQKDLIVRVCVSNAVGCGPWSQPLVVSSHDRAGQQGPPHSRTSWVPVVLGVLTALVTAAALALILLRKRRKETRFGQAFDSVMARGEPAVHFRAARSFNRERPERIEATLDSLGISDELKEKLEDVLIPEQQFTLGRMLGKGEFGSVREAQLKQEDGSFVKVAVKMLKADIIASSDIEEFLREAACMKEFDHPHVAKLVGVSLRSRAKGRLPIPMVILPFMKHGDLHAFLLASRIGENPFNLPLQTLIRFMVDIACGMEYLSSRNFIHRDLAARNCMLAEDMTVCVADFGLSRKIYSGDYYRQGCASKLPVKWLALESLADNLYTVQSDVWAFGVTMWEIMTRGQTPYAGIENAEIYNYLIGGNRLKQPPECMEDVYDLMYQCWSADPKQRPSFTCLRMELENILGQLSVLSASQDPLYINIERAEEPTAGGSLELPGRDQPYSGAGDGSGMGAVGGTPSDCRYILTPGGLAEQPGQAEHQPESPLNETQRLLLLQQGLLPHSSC
Sequence of Ephrin type-A receptor 5 (Homo sapiens) (P54756 whole entry): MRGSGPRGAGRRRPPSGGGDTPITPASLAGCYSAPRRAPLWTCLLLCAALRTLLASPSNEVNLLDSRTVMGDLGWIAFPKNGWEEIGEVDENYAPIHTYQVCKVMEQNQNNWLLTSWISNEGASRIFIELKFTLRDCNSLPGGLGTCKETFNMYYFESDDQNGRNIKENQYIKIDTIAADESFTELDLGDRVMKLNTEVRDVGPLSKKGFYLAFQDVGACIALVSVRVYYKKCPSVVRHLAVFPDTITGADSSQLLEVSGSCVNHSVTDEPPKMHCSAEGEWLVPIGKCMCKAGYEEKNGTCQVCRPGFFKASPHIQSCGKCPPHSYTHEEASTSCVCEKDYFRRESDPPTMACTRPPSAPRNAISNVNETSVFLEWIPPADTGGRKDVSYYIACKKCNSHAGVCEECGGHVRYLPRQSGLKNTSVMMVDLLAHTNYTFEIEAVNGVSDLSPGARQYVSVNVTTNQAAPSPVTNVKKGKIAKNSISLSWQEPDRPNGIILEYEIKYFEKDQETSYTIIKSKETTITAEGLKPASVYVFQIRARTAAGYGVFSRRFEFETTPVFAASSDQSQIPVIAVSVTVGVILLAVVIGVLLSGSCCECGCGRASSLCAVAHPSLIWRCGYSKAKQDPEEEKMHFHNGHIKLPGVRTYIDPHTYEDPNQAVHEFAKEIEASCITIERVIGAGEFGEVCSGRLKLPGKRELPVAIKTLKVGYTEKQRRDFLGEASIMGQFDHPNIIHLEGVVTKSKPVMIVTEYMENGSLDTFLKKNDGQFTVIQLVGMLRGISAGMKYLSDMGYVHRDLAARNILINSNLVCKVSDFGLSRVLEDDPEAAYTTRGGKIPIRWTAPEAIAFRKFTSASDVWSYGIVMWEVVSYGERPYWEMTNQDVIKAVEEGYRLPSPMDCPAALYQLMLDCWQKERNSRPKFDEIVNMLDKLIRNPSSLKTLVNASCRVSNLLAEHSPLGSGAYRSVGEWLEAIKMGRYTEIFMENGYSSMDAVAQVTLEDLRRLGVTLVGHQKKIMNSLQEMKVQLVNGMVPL
Sequence of BDNF/NT-3 growth factors receptor (Homo sapiens) (Q16620 32-822 limits assumed): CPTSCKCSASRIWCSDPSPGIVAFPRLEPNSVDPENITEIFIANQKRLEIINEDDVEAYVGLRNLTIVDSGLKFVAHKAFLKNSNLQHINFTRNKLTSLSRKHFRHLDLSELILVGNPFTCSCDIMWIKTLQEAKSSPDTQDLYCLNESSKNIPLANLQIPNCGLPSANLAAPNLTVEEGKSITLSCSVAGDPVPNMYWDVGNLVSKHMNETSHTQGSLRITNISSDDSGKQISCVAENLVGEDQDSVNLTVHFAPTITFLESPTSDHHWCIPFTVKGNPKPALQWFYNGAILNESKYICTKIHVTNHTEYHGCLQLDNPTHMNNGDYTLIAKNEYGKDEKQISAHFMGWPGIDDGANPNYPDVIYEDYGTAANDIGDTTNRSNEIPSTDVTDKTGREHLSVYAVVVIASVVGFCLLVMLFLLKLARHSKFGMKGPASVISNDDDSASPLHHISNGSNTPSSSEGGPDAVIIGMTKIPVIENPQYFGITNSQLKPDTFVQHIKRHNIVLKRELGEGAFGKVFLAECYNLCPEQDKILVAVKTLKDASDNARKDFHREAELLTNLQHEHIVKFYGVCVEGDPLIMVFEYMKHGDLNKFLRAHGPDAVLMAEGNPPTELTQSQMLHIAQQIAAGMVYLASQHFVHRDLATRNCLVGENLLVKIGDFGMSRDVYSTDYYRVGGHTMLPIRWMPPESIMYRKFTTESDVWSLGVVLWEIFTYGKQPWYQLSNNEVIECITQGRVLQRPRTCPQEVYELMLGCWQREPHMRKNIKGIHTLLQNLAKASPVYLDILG

Question: Which residual activity [1, 46] does the source give for `CNC(=O)c1ccc(Nc2ncc(C(F)(F)F)c(NCc3nccnc3N(C)S(C)(=O)=O)n2)cc1` [DEFACTINIB] here?
Answer: 80%

Question: What about the residual activity [2, 46] of the same compound?
Answer: 100%

Question: What about the residual activity [3, 46] of the same compound?
Answer: 100%

Question: What about the residual activity [4, 46] of the same compound?
Answer: 90%

Question: And the residual activity [5, 46]?
Answer: 83%

Question: What about the residual activity [6, 46] of the same compound?
Answer: 94%

Question: And the residual activity [7, 46]?
Answer: 82%

Question: What about the residual activity [8, 46] of the same compound?
Answer: 77%

Question: And the residual activity [9, 46]?
Answer: 68%

Question: What about the residual activity [10, 46] of the same compound?
Answer: 92%

Question: What about the residual activity [11, 46] of the same compound?
Answer: 64%

Question: What about the residual activity [12, 46] of the same compound?
Answer: 87%

Question: And the residual activity [13, 46]?
Answer: 94%

Question: What about the residual activity [14, 46] of the same compound?
Answer: 100%

Question: What about the residual activity [15, 46] of the same compound?
Answer: 93%

Question: What about the residual activity [16, 46] of the same compound?
Answer: 100%

Question: And the residual activity [17, 46]?
Answer: 80%

Question: What about the residual activity [18, 46] of the same compound?
Answer: 95%

Question: What about the residual activity [19, 46] of the same compound?
Answer: 77%

Question: What about the residual activity [20, 46] of the same compound?
Answer: 71%

Question: And the residual activity [21, 46]?
Answer: 65%

Question: And the residual activity [22, 46]?
Answer: 100%

Question: What about the residual activity [23, 46] of the same compound?
Answer: 77%

Question: What about the residual activity [24, 46] of the same compound?
Answer: 98%

Question: What about the residual activity [25, 46] of the same compound?
Answer: 81%

Question: What about the residual activity [26, 46] of the same compound?
Answer: 88%

Question: And the residual activity [27, 46]?
Answer: 100%

Question: And the residual activity [28, 46]?
Answer: 100%

Question: And the residual activity [29, 46]?
Answer: 82%

Question: And the residual activity [30, 46]?
Answer: 77%

Question: And the residual activity [31, 46]?
Answer: 100%

Question: And the residual activity [32, 46]?
Answer: 89%

Question: And the residual activity [33, 46]?
Answer: 97%

Question: And the residual activity [34, 46]?
Answer: 60%

Question: What about the residual activity [35, 46] of the same compound?
Answer: 85%

Question: And the residual activity [36, 46]?
Answer: 100%

Question: And the residual activity [37, 46]?
Answer: 57%

Question: What about the residual activity [38, 46] of the same compound?
Answer: 53%

Question: And the residual activity [39, 46]?
Answer: 100%

Question: What about the residual activity [40, 46] of the same compound?
Answer: 13%

Question: And the residual activity [41, 46]?
Answer: 21%

Question: And the residual activity [42, 46]?
Answer: 100%

Question: What about the residual activity [43, 46] of the same compound?
Answer: 71%

Question: What about the inhibition [44] of the same compound?
Answer: -0.22%

Question: What about the inhibition [45] of the same compound?
Answer: 48.1%

Question: How did the residual activity [1, 47] turn out when `CN(c1ccnc(CNc2nc(Nc3ccc4c(c3)CC(=O)N4)ncc2C(F)(F)F)n1)S(C)(=O)=O` [PF-00911705] was run?
Answer: 27%

Question: What about the residual activity [2, 47] of the same compound?
Answer: 34%

Question: And the residual activity [3, 47]?
Answer: 49%

Question: What about the residual activity [4, 47] of the same compound?
Answer: 73%

Question: And the residual activity [5, 47]?
Answer: 100%

Question: And the residual activity [6, 47]?
Answer: 82%

Question: And the residual activity [7, 47]?
Answer: 61%

Question: What about the residual activity [8, 47] of the same compound?
Answer: 81%

Question: And the residual activity [9, 47]?
Answer: 58%

Question: And the residual activity [10, 47]?
Answer: 89%

Question: What about the residual activity [11, 47] of the same compound?
Answer: 82%

Question: What about the residual activity [12, 47] of the same compound?
Answer: 95%

Question: What about the residual activity [13, 47] of the same compound?
Answer: 96%

Question: And the residual activity [14, 47]?
Answer: 100%

Question: What about the residual activity [15, 47] of the same compound?
Answer: 78%

Question: What about the residual activity [16, 47] of the same compound?
Answer: 59%

Question: What about the residual activity [17, 47] of the same compound?
Answer: 91%

Question: What about the residual activity [18, 47] of the same compound?
Answer: 100%

Question: What about the residual activity [19, 47] of the same compound?
Answer: 13%

Question: What about the residual activity [20, 47] of the same compound?
Answer: 44%

Question: And the residual activity [21, 47]?
Answer: 42%

Question: What about the residual activity [22, 47] of the same compound?
Answer: 91%

Question: And the residual activity [23, 47]?
Answer: 83%

Question: What about the residual activity [24, 47] of the same compound?
Answer: 80%

Question: What about the residual activity [25, 47] of the same compound?
Answer: 84%

Question: What about the residual activity [26, 47] of the same compound?
Answer: 85%

Question: And the residual activity [27, 47]?
Answer: 84%

Question: And the residual activity [28, 47]?
Answer: 100%

Question: What about the residual activity [29, 47] of the same compound?
Answer: 77%

Question: And the residual activity [30, 47]?
Answer: 0.5%

Question: What about the residual activity [31, 47] of the same compound?
Answer: 78%

Question: What about the residual activity [32, 47] of the same compound?
Answer: 55%

Question: And the residual activity [33, 47]?
Answer: 85%

Question: And the residual activity [34, 47]?
Answer: 49%

Question: And the residual activity [35, 47]?
Answer: 81%

Question: And the residual activity [36, 47]?
Answer: 100%

Question: And the residual activity [37, 47]?
Answer: 72%

Question: What about the residual activity [38, 47] of the same compound?
Answer: 41%

Question: And the residual activity [39, 47]?
Answer: 11%

Question: And the residual activity [40, 47]?
Answer: 10%

Question: And the residual activity [41, 47]?
Answer: 21%

Question: And the residual activity [42, 47]?
Answer: 99%

Question: And the residual activity [43, 47]?
Answer: 72%

Question: What about the inhibition [44] of the same compound?
Answer: 0.5%

Question: And the inhibition [45]?
Answer: 60.3%
